According to US6348468B1, “Pyridazine compounds and compositions containing the same” (Kowa Co., Ltd., priority 1997, dated 2002):

Tested on: Interleukin-1β (IL-1β) Production
Assay: Inhibitory activity against interleukin-1β production (LPS-stimulated HL-60 cells, ELISA)
Assay type: cell-based
Details: Homo sapiens, 72 h, lipopolysaccharide 10 μg/ml, culturing for 3 days
Procedure: HL-60 cells were cultured for 4 days until confluence on RPMI 1640 medium with 10% fetal bovine serum (FBS) added thereto. The HL-60 cells were centrifuged. The supernatant was discarded, and the cells were then suspended at 1×10^6 cells/ml on RPMI 1640 medium with 3% FBS, and lipopolysaccharide was added to give a final concentration of 10 μg/ml. The culture was inoculated at 1 ml/well to a 24-well plate. A test sample was added at 1 μl/well, followed by culturing for 3 days. Three days later, the amount of interleukin-1β in each of the cultures was measured by ELISA. Its IC50 value was determined by a comparison in yield with a control to which no test sample was added.

SMILES | IC50 [µM]
COc1ccc(-c2cc(=O)n(CCN(C)C)nc2-c2ccc(OC)cc2)cc1 [Comp. Comp'd 3, reference compound] | > 100
COc1ccc(-c2cc(=O)[nH]nc2-c2ccc(OC)cc2)cc1 [Comp. Comp'd 4, reference compound] | 31.6
COc1ccc(Cn2nc(-c3ccc(OC)cc3)c(-c3ccc(OC)cc3)cc2=O)cc1 [Example 14, 5,6-bis(4-methoxyphenyl)-2-(4-methoxybenzyl)-2H-pyridazin-3-one] | 0.094
COc1ccc(-c2cc(=O)n(Cc3cc(OC)c(OC)c(OC)c3)nc2-c2ccc(OC)cc2)cc1 [Example 16, 5,6-bis(4-methoxyphenyl)-2-(3,4,5-trimethoxybenzyl)-2H-pyridazin-3-one] | 0.23
COc1ccc(-c2cc(=O)n(CCCc3ccccc3)nc2-c2ccc(OC)cc2)cc1 [Example 19, 5,6-bis(4-methoxyphenyl)-2-(3-phenylpropyl)-2H-pyridazin-3-one] | 0.079
COc1ccc(CCCn2nc(-c3ccc(OC)cc3)c(-c3ccc(OC)cc3)cc2=O)cc1 [Example 23, 5,6-bis(4-methoxyphenyl)-2-[3-(4-methoxyphenyl)propyl]-2H-pyridazin-3-one] | 0.36
COc1ccc(-c2cc(=O)n(CCCc3ccc(C)cc3)nc2-c2ccc(OC)cc2)cc1 [Example 25, 5,6-bis(4-methoxyphenyl)-2-[3-(4-methylphenyl)propyl]-2H-pyridazin-3-one] | 0.18
COc1ccc(-c2cc(=O)n(Cc3ccc(OC)c(F)c3)nc2-c2ccc(OC)cc2)cc1 [Example 28, 5,6-bis(4-methoxyphenyl)-2-(3-fluoro-4-methoxybenzyl)-2H-pyridazin-3-one] | 0.29
COc1ccc(-c2cc(=O)n(CC=Cc3ccc(F)cc3F)nc2-c2ccc(OC)cc2)cc1 [Example 31, 5,6-bis(4-methoxyphenyl)-2-(2,4-difluorocinnamyl)-2H-pyridazin-3-one] | 0.095

Now from value to compound:

IC50 [µM] | SMILES
0.1 | COc1ccc(-c2cc(=O)n(CC=Cc3ccc(Cl)cc3)nc2-c2ccc(OC)cc2)cc1 [Example 12, 5,6-bis(4-methoxyphenyl)-2-(4-chlorocinnamyl)-2H-pyridazin-3-one]
0.26 | COc1ccc(-c2cc(=O)n(Cc3ccccc3)nc2-c2ccc(OC)cc2)cc1 [Example 13, 5,6-bis(4-methoxyphenyl)-2-benzyl-2H-pyridazin-3-one]
0.2 | COc1ccc(-c2cc(=O)n(CC=Cc3ccc(C)cc3)nc2-c2ccc(OC)cc2)cc1 [Example 24, 5,6-bis(4-methoxyphenyl)-2-(4-methylcinnamyl)-2H-pyridazin-3-one]
0.15 | COc1ccc(-c2cc(=O)n(Cc3ccc(F)cc3)nc2-c2ccc(OC)cc2)cc1 [Example 26, 5,6-bis(4-methoxyphenyl)-2-(4-fluorobenzyl)-2H-pyridazin-3-one]
0.18 | COc1ccc(-c2cc(=O)n(Cc3ccc(F)cc3F)nc2-c2ccc(OC)cc2)cc1 [Example 27, 5,6-bis(4-methoxyphenyl)-2-(2,4-difluorobenzyl)-2H-pyridazin-3-one]
0.17 | COc1ccc(-c2cc(=O)n(CC=Cc3ccc(F)cc3)nc2-c2ccc(OC)cc2)cc1 [Example 30, 5,6-bis(4-methoxyphenyl)-2-(4-fluorocinnamyl)-2H-pyridazin-3-one]
0.21 | COc1ccc(-c2cc(=O)n(Cc3ccc(Cl)c(Cl)c3)nc2-c2ccc(OC)cc2)cc1 [Example 35, 5,6-bis(4-methoxyphenyl)-2-(3,4-dichlorobenzyl)-2H-pyridazin-3-one]

Tested on: not given
Assay: not given
Details: not given

SMILES | melting point [°C]
COc1ccc(-c2cc(=O)n(CC(C)C)nc2-c2ccc(OC)c(F)c2)cc1 [Example 147, 6-(3-fluoro-4-methoxyphenyl)-2-isobutyl-5-(4-methoxyphenyl)-2H-pyridazin-3-one] | 86.8 to 87.4
COc1ccc(C2=NNC(=O)CC2c2ccc(OC)c(F)c2)cc1 (stereo not shown) [Example 149, 4,5-dihydro-5-(3-fluoro-4-methoxyphenyl)-6-(4-methoxyphenyl)-2H-pyridazin-3-one] | 171.2 to 173.4
COc1ccc(-c2nn(CC=Cc3ccc(Cl)cc3)c(=O)cc2-c2ccc(OC)c(F)c2)cc1 [Example 152, 2-(4-chlorocinnamyl)-5-(3-fluoro-4-methoxyphenyl)-6-(4-methoxyphenyl)-2H-pyridazin-3-one] | 109.2 to 111
CCn1nc(-c2ccc(OC)cc2)c(-c2ccc(OC)c(F)c2)cc1=O [Example 153, 2-ethyl-5-(3-fluoro-4-methoxyphenyl)-6-(4-methoxyphenyl)-2H-pyridazin-3-one] | 161.7 to 162.2
COc1ccc(-c2nn(CC(C)C)c(=O)cc2-c2ccc(OC)c(F)c2)cc1 [Example 154, 5-(3-fluoro-4-methoxyphenyl)-2-isobutyl-6-(4-methoxyphenyl)-2H-pyridazin-3-one] | 124.6 to 125
COc1ccc(C2=NNC(=O)CC2c2ccc(OC)c(F)c2)cc1F (stereo not shown) [Example 156, 5,6-bis(3-fluoro-4-methoxyphenyl)-4,5-dihydro-2H-pyridazin-3-one] | 195.7 to 197.7
COc1ccc(-c2cc(=O)n(CC=Cc3ccc(Cl)cc3)nc2-c2ccc(OC)c(F)c2)cc1F [Example 159, 5,6-bis(3-fluoro-4-methoxyphenyl)-2-(4-chlorocinnamyl)-2H-pyridazin-3-one] | 72.5 to 74.9

Other lines, results leading:

melting point [°C] | SMILES
132.2 to 132.6 | COc1ccc(-c2cc(=O)n(CC3CC3)nc2-c2ccc(OC)c(F)c2)cc1 [Example 148, 2-cyclopropylmethyl-6-(3-fluoro-4-methoxyphenyl)-5-(4-methoxyphenyl)-2H-pyridazin-3-one]
212.8 to 213.4 | COc1ccc(-c2n[nH]c(=O)cc2-c2ccc(OC)c(F)c2)cc1 [Example 150, 5-(3-fluoro-4-methoxyphenyl)-6-(4-methoxyphenyl)-2H-pyridazin-3-one]
109.6 to 111.6 | COc1ccc(-c2nn(Cc3ccccc3)c(=O)cc2-c2ccc(OC)c(F)c2)cc1 [Example 151, 2-benzyl-5-(3-fluoro-4-methoxyphenyl)-6-(4-methoxyphenyl)-2H-pyridazin-3-one]
135.2 to 135.7 | COc1ccc(-c2nn(CC3CC3)c(=O)cc2-c2ccc(OC)c(F)c2)cc1 [Example 155, 2-cyclopropylmethyl-5-(3-fluoro-4-methoxyphenyl)-6-(4-methoxyphenyl)-2H-pyridazin-3-one]
204.8 to 205.7 | COc1ccc(-c2cc(=O)[nH]nc2-c2ccc(OC)c(F)c2)cc1F [Example 157, 5,6-bis(3-fluoro-4-methoxyphenyl)-2H-pyridazin-3-one]
114.1 to 115.2 | COc1ccc(-c2cc(=O)n(Cc3ccccc3)nc2-c2ccc(OC)c(F)c2)cc1F [Example 158, 2-benzyl-5,6-bis(3-fluoro-4-methoxyphenyl)-2H-pyridazin-3-one]
154 to 154.5 | COc1ccc(-c2cc(=O)n(CC(C)C)nc2-c2ccc(OC)c(F)c2)cc1F [Example 161, 5,6-bis(3-fluoro-4-methoxyphenyl)-2-isobutyl-2H-pyridazin-3-one]
142.3 to 142.7 | COc1ccc(-c2cc(=O)n(CC3CC3)nc2-c2ccc(OC)c(F)c2)cc1F [Example 162, 5,6-bis(3-fluoro-4-methoxyphenyl)-2-cyclopropylmethyl-2H-pyridazin-3-one]
